Data published in patent US8940897B2, “1,3,4-oxadiazole and 1,3,4-thiadiazole β-lactamase inhibitors” (priority 2012, dated 2015).
Where a name gives a salt, the structure may show the parent alone.

Tests used:
[1] = tested on: bacterial strains that express the class D cephalosporinase OXA-15; test: Synergy MIC / standard BLI potentiation MIC assay, strains expressing OXA-15;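 note: more active means a lower MIC or sMIC than Avibactam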; format: cell-based, E. coli; details: in the presence of a β-lactam; comparator Avibactam (CCC)
Method in brief: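 CLSI broth microdilution in CAMHB, ~10^5 CFU/mL, 18–20 h at 37 °C with aeration; engineered E. coli kept on 25 μg/mL tetracycline. Potentiation: β-lactam 128–0.13 μg/mL with BLI fixed at 4 μg/mL; synergy MIC: BLI serially diluted with fixed β-lactam. MIC is the lowest concentration without visible turbidity.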

[2] = tested on: bacterial strains that express KPC β-lactamases; test: Synergy MIC / standard BLI potentiation MIC assay, strains expressing KPC β-lactamases; format: cell-based; details: for at least one KPC strain and/or a better spectrum of activity against KPC strains than Avibactam; in the presence of a β-lactam
Protocol: Unless otherwise indicated, the activity of the BLI compounds can be described by the MIC value obtained from a Synergy MIC assay or a BLI potentiation assay (e.g as described herein), both of which are run in the presence of a β-lactam.
The experimental protocol was performed according to Clinical and Laboratory Standards Institute (CLSI) guidelines with modifications as described below (CLSI guidelines can be derived from the CLSI document M07-A9 published in January 2012: “Methods for Dilution Antimicrobial Susceptibility Tests for Bacteria That Grow Aerobically; Approved Standard-Ninth Edition”).
To prepare for MIC testing, frozen glycerol stocks of clinical isolates (Klebsiella pneumoniae, Eschericia coli, Enterobacter spp, Citrobacter spp, or Pseudomonas aeruginosa) were used to streak for isolated colonies on rich, non-selective, tryptic soy agar containing 5% sheep's blood (TSAB). Frozen glycerol stocks of laboratory engineered, isogenic E. coli strains, which contain cloned β-lactamase expressing plasmids were used to streak for isolated colonies on rich, selective LB agar supplemented with 25 μg/mL tetracycline to maintain the plasmid. All strains were incubated at 37° C. for 18-24 hrs.
On the day of testing, primary cultures were started by scraping off 5-10 colonies from the TSAB plates containing clinical strains or the tetracycline supplemented LB plates containing engineered strains. The clinical strain material was suspended in ˜5 mL of cation adjusted Mueller Hinton Broth (CAMHB) in 14 mL culture tubes. The engineered strain material was suspended in CAMHB (supplemented with 25 μg/mL tetracycline) in 14 mL culture tubes. All strains were incubated at 37° C. with aeration (200 rpm) for ˜2 hrs until the optical density at 600 nm (OD600) was ≧0.1.
The two compound components of the assay were each diluted in CAMHB and added to the 96-well broth microdilution assay plates. 50 μL of the β-lactam was added to each well of the assay plate in 2-fold dilutions with final concentrations ranging from 128 to 0.13 μg/mL. 25 μL of the BLI compound was added to all wells in the broth microdilution plates at a final concentration of 4 μg/mL. Inoculum cultures were prepared by standardizing the primary cultures to OD600=0.1 and then adding 20 μL of the adjusted primary culture per 1 mL CAMHB for clinical strains or CAMHB (supplemented with tetracycline at 100 μg/mL) for engineered strains, so that the final inoculum density was ˜10^5 colony forming units per milliliter. Diluted inoculum cultures were used to inoculate 25 μl, per well in 96-well broth microdilution assay plates. The final volume of each well was 100 μL and contained a β-lactam at different concentrations, a BLIcompound at 4 μg/mL concentration, the bacterial culture at an OD600 of approximately 0.001 and when necessary tetracycline at 25 μg/mL.
Plates were incubated for 18-20 hours at 37° C. with aeration (200 rpm). Following incubation, growth was confirmed visually placing plates over a viewing apparatus (stand with a mirror underneath) and then OD600 was measured using a SpectraMax 340PC384 plate reader (Molecular Devices, Sunnyvale, Calif.). Growth was defined as turbidity that could be detected with the naked eye or achieving minimum OD600 of 0.1. MIC values were defined as the lowest concentration producing no visible turbidity.
The synergy MIC (sMIC) assay determines the concentration of the BLI required to potentiate the activity of a fixed concentration of a β-lactam antibiotic against β-lactamase producing bacterial strains. The experimental protocol was performed according to Clinical and Laboratory Standards Institute (CLSI) guidelines with modifications as described below (CLSI guidelines can be derived from the CLSI document M07-A9 published in January 2012: “Methods for Dilution Antimicrobial Susceptibility Tests for Bacteria That Grow Aerobically; Approved Standard-Ninth Edition”). […]

Structure (SMILES) | activity against bacterial strains that express OXA-15 β-lactamase compared with Avibactam [1] | activity against bacterial strains that express KPC β-lactamase compared with Avibactam [2]
O=C1N2C[C@@H](CC[C@H]2c2nnc(CCCC3CNC3)o2)N1OS(=O)(=O)O [Compound 743, (2S,5R)-2-(5-(3-(azetidin-3-yl)propyl)-1,3,4-oxadiazol-2-yl)-7-oxo-1,6-diazabicyclo[3.2.1]octan-6-yl hydrogen sulfate] | more active than Avibactam | more active than Avibactam
O=C1N2C[C@@H](CC[C@H]2c2nnc(COC3CNC3)o2)N1OS(=O)(=O)O [Compound 744, (2S,5R)-2-(5-((azetidin-3-yloxy)methyl)-1,3,4-oxadiazol-2-yl)-7-oxo-1,6-diazabicyclo[3.2.1]octan-6-yl hydrogen sulfate] | more active than Avibactam | more active than Avibactam
O=C1N2C[C@@H](CC[C@H]2c2nnc(CCNC3CNC3)o2)N1OS(=O)(=O)O [Compound 745, (2S,5R)-2-(5-(2-(azetidin-3-ylamino)ethyl)-1,3,4-oxadiazol-2-yl)-7-oxo-1,6-diazabicyclo[3.2.1]octan-6-yl hydrogen sulfate] | more active than Avibactam | more active than Avibactam
N=C(N)N1CC(NCc2nnc([C@@H]3CC[C@@H]4CN3C(=O)N4OS(=O)(=O)O)o2)C1 [Compound 746, (2S,5R)-2-(5-(((1-carbamimidoylazetidin-3-yl)amino)methyl)-1,3,4-oxadiazol-2-yl)-7-oxo-1,6-diazabicyclo[3.2.1]octan-6-yl hydrogen sulfate] | more active than Avibactam | more active than Avibactam
N=C(N)N[C@H]1C[C@@H](c2nnc([C@@H]3CC[C@@H]4CN3C(=O)N4OS(=O)(=O)O)o2)C1 [Compound 749, (2S,5R)-2-(5-((1s,3R)-3-guanidinocyclobutyl)-1,3,4-oxadiazol-2-yl)-7-oxo-1,6-diazabicyclo[3.2.1]octan-6-yl hydrogen sulfate] | more active than Avibactam | more active than Avibactam
O=C1N2C[C@@H](CC[C@H]2c2nnc(C3CC4(CNC4)C3)o2)N1OS(=O)(=O)O [Compound 750, (2S,5R)-2-(5-(2-azaspiro[3.3]heptan-6-yl)-1,3,4-oxadiazol-2-yl)-7-oxo-1,6-diazabicyclo[3.2.1]octan-6-yl hydrogen sulfate] | more active than Avibactam | more active than Avibactam
N[C@H]1C[C@H](Cc2nnc([C@@H]3CC[C@@H]4CN3C(=O)N4OS(=O)(=O)O)o2)C1 [Compound 751, (2S,5R)-2-(5-(((1r,3S)-3-aminocyclobutyl)methyl)-1,3,4-oxadiazol-2-yl)-7-oxo-1,6-diazabicyclo[3.2.1]octan-6-yl hydrogen sulfate] | more active than Avibactam | more active than Avibactam
N=C(N)NC1CC(Cc2nnc([C@@H]3CC[C@@H]4CN3C(=O)N4OS(=O)(=O)O)o2)C1 (stereo partly drawn) [Compound 752, (2S,5R)-2-(5-((3-guanidinocyclobutyl)methyl)-1,3,4-oxadiazol-2-yl)-7-oxo-1,6-diazabicyclo[3.2.1]octan-6-yl hydrogen sulfate] | more active than Avibactam | more active than Avibactam
N[C@H]1C[C@H](CCc2nnc([C@@H]3CC[C@@H]4CN3C(=O)N4OS(=O)(=O)O)o2)C1 [Compound 753, (2S,5R)-2-(5-(2-((1r,3R)-3-aminocyclobutyl)ethyl)-1,3,4-oxadiazol-2-yl)-7-oxo-1,6-diazabicyclo[3.2.1]octan-6-yl hydrogen sulfate] | more active than Avibactam | more active than Avibactam
N[C@H]1C[C@@H](CCc2nnc([C@@H]3CC[C@@H]4CN3C(=O)N4OS(=O)(=O)O)o2)C1 [Compound 754, (2S,5R)-2-(5-(2-((1s,3S)-3-aminocyclobutyl)ethyl)-1,3,4-oxadiazol-2-yl)-7-oxo-1,6-diazabicyclo[3.2.1]octan-6-yl hydrogen sulfate] | more active than Avibactam | more active than Avibactam
NC1CC(NCc2nnc([C@@H]3CC[C@@H]4CN3C(=O)N4OS(=O)(=O)O)o2)C1 (stereo partly drawn) [Compound 755, (2S,5R)-2-(5-(((3-aminocyclobutyl)amino)methyl)-1,3,4-oxadiazol-2-yl)-7-oxo-1,6-diazabicyclo[3.2.1]octan-6-yl hydrogen sulfate] | more active than Avibactam | more active than Avibactam
N[C@H]1C[C@@H](NCc2nnc([C@@H]3CC[C@@H]4CN3C(=O)N4OS(=O)(=O)O)o2)C1 [Compound 756, (2S,5R)-2-(5-((((1s,3R)-3-aminocyclobutyl)amino)methyl)-1,3,4-oxadiazol-2-yl)-7-oxo-1,6-diazabicyclo[3.2.1]octan-6-yl hydrogen sulfate] | more active than Avibactam | more active than Avibactam
O=C1N2C[C@@H](CC[C@H]2c2nnc([C@H]3CCNC3)o2)N1OS(=O)(=O)O [Compound 758, (2S,5R)-7-oxo-2-(5-((S)-pyrrolidin-3-yl)-1,3,4-oxadiazol-2-yl)-1,6-diazabicyclo[3.2.1]octan-6-yl hydrogen sulfate] | more active than Avibactam | more active than Avibactam
O=C1N2C[C@@H](CC[C@H]2c2nnc([C@@H]3CCNC3)o2)N1OS(=O)(=O)O [Compound 759, (2S,5R)-7-oxo-2-(5-((R)-pyrrolidin-3-yl)-1,3,4-oxadiazol-2-yl)-1,6-diazabicyclo[3.2.1]octan-6-yl hydrogen sulfate] | more active than Avibactam | more active than Avibactam
